Measurements reported in publication PMC10507793, “Discovery and computational studies of piperidine/piperazine-based compounds endowed with sigma receptor affinity” (RSC Medicinal Chemistry, 2023).
Entries after “also recorded” stand apart in the source; their conditions may differ.

Key:
S2R = target: T1, S2R (Rattus norvegicus, UniProt Q5U3Y7); assay: S2R radioligand binding assay with [3H]DTG; conditions: for Ki: read-out: Ki ± SD S2R, rat liver homogenates, [3H]DTG, (+)-pentazocine as S1R masking agent, mean ± SD of at least two experiments in duplicate; for binding to S2R (in words): radioligand binding
T1 sequence (Q5U3Y7 1-176): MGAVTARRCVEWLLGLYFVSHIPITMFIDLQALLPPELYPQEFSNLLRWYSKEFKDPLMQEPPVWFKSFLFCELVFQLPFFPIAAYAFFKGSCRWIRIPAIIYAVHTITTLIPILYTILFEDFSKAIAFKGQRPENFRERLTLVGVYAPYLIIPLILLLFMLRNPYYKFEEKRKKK

S1R [1] = target: T2, S1R (Rattus norvegicus, UniProt Q9R0C9); assay: S1R radioligand binding assay with [3H](+)-pentazocine; conditions: for Ki: read-out: Ki ± SD S1R, rat liver homogenates, [3H](+)pentazocine, mean ± SD of at least two experiments in duplicate; for KiS2R/KiS1R ratio: selectivity over S2R; for binding to S1R (in words): radioligand binding
T2 sequence (Q9R0C9 whole entry): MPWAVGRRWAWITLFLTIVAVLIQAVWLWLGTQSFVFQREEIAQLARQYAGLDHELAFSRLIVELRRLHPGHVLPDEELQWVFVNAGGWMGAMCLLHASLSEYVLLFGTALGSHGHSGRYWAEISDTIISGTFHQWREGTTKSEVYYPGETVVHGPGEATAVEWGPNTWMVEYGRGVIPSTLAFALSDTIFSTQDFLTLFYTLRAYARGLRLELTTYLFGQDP

S1R [2] = conditions: co-crystallized ligand; no reference given; read-out: KiS1R; cited from earlier work
S1R [3] = target: T2, S1R; assay: S1R functional assay (phenytoin method, [3H](+)-pentazocine displacement); format: binding; set-up: liver homogenates from male Sprague Dawley rats; from tissue; host or cells: rat liver homogenate (male Sprague Dawley); conditions: rat liver; for ratio of Ki without phenytoin/with phenytoin: agonist if ratio >1, antagonist if ≤1
Protocol: Phenytoin is an allosteric modulator for the S1R, and it differentially modulates the affinity of S1R ligands on the basis of their agonist or antagonist profile.[22,23]
The experiments were performed one time in the presence of phenytoin and one time without phenytoin. […] The incubation of samples lasts 120 min at 37 °C. Unlabeled (+)-pentazocine (10 μM) was used to measure non-specific binding.
GraphPad Prism® 7.0 (GraphPad Software, San Diego, CA, USA) program was used to calculate the Ki values that are given as mean value ± SD from at least two independent experiments performed in duplicate.

| Structure (SMILES) | Ki (S2R) [nM] | Ki (S1R [1]) [nM] | also measured |
| --- | --- | --- | --- |
| O=C(c1cc2ccccc2s1)N1CCN(Cc2ccc(F)cc2)CC1 [Compound 6] | > 10000 | 82 ± 18 | – |
| O=C(NC1CCN(Cc2ccccc2)CC1)c1ccc(I)cc1 [4-IBP] | – | – | Ki (S1R [2]): 1.7 nM |
| O=C(CCN1CCC(Cc2ccccc2)CC1)N1CCN(c2ccc(O)cc2)CC1 [Compound 4] | 1000 ± 203 | 328 ± 58 | – |
| O=C(CCN1CCC(Cc2ccc(F)cc2)CC1)N1CCN(c2ccc(O)cc2)CC1 [Compound 5] | 610 ± 146 | 434 ± 47 | – |
| C=CCN1CC[C@]2(C)c3cc(O)ccc3C[C@H]1[C@H]2C [SKF-10 047, reference compound] | – | – | ratio of Ki without phenytoin/with phenytoin (S1R [3]): 3.2 |
| O=C(CN1CCC(Cc2ccccc2)CC1)N1CCN(c2ccccc2)CC1 [Compound 1, 2-[4-(benzyl)-1-piperidin-1-yl]-1-4-(4-phenylpiperazin-1-yl)ethanone] | 104 ± 15 | 3.2 ± 0.7 | KiS2R/KiS1R ratio (S1R [1]): 33; S1R functional profile (S1R [3]; phenytoin assay): S1R agonist; ratio of Ki without phenytoin/with phenytoin (S1R [3]): 1.8 |
| O=C(CCN1CCC(Cc2ccccc2)CC1)N1CCN(c2ccccc2)CC1 [Compound 3] | 234 ± 43 | 8.9 ± 1.3 | KiS2R/KiS1R ratio (S1R [1]): 26 |
| O=C(c1ccccc1)N1CCN(c2ccc(O)cc2)CC1 [Compound 12] | > 10000 | > 10000 | binding to S2R (in words) (S2R): failed to bind; also recorded: did not bind; binding to S1R (in words) (S1R [1]): failed to bind; also recorded: did not bind |
| O=C(CN1CCC(Cc2ccccc2)CC1)N1CCN(c2ccc(O)cc2)CC1 [Compound 2] | 1200 ± 226 | 24 ± 5 | KiS2R/KiS1R ratio (S1R [1]): 50 |
| O=C(Cc1ccccc1Br)N1CCN(Cc2ccc(F)cc2)CC1 [Compound 10] | > 10000 | 366 ± 80 | – |
| O=C(C(c1ccccc1)c1ccccc1)N1CCN(Cc2ccc(F)cc2)CC1 [Compound 11] | > 10000 | 390 ± 77 | – |
| O=C(c1ccc([N+](=O)[O-])s1)N1CCN(Cc2ccc(F)cc2)CC1 [Compound 9] | > 10000 | 309 ± 55 | – |
| Cc1ccc(C(=O)N2CCN(Cc3ccc(F)cc3)CC2)o1 [Compound 8] | > 10000 | 214 ± 29 | – |
| O=C(c1cc2ccccc2o1)N1CCN(Cc2ccc(F)cc2)CC1 [Compound 7] | > 10000 | 132 ± 27 | – |
| O=C(c1ccc(-c2ccccc2)cc1)N1CCN(c2ccc(O)cc2)CC1 [Compound 13] | > 10000 | > 10000 | binding to S2R (in words) (S2R): failed to bind; also recorded: did not bind; binding to S1R (in words) (S1R [1]): failed to bind; also recorded: did not bind |
